Each structure is given as a SMILES string. Non-standard residues stand in square brackets, D forms with d. Residues, ends and D or L forms follow the SMILES beside them. ξ: configuration not given here. *: point of attachment. Boc = CC(C)(C)OC(=O)*; ξA = CC(N)C(=O)O

`Cc1nc(Cc2ccc(NC(=O)/C=C/c3cnn(C)c3-c3ccc(F)cc3)cc2)no1`: the melting point – broadly, the temperature of the solid-liquid transition – lay in the range of 183 to 184 °C.

In the case of `NC(=O)c1cccc(-c2ccc(Cl)c3cc(Cc4ccc(F)c(F)c4)sc23)c1`, the melting point lay within 185 to 186 °C.

As to `O=C(O)c1ccc(NCCC(c2ccc(Cl)cc2)c2ccc(Cl)cc2)cc1`, the melting point is 213 to 215 °C.

`Cc1ccc(NC(=O)c2ccc(CN3CCN(C)C(=O)C3)cc2)cc1Nc1nccc(-c2cccnc2)n1` displayed a melting point of 187 to 192 °C.

`Cc1cccc(C=Cc2c(C(C)C)nc(C(C)C)c(CO)c2-c2ccc(F)cc2)c1` registered a melting point of 97 to 99 °C.

Take `NC(=O)CNC(=O)c1ccc(F)c(-c2ccc(F)c3cc(Cc4cc(F)cc(Cl)c4)sc23)c1`: the melting point fell in the range of 178 to 179 °C.

In turn, `N#CC1=C(C2CCCN2)Nc2n[nH]cc2C1c1cccc(C#N)c1Br` (centres undefined) had a melting point above 240 °C.

With `CCCCNS(=O)(=O)C[C@@H](O)C(O)[C@@H](CC1CCCCC1)NC(=O)[C@H](CC(C)C)NC(=O)CCc1ccccc1` (relative stereo), the melting point lay within 63 to 73 °C.

For the molecule `COc1cccc(C(=O)c2ccc(OC)c(C(=O)O)c2)c1`, the melting point was determined as 132 °C.

As for `OC1CCN(CCCOc2ccc3cc(-c4n[nH]c5cc(-c6ccccc6)sc45)[nH]c3c2)CC1`, the melting point lay in the range of 239 to 242 °C.

Turning to `Brc1cnc2nc(N3CCN(CCCCOc4ccccc4)CC3)nn2c1`, the melting point was 122 to 123 °C.

The molecule `Cc1nc(-c2ccc(Cl)cc2)n(-c2ccc(S(N)(=O)=O)cc2)n1` displayed a melting point of 247 to 249 °C.

`O=C1CCC(c2ccccc2F)(c2ccccc2F)[C@@H]2CN(Cc3ccccc3)C[C@H]12` (racemic) registered a melting point of 138 °C.

For `CN1C(=O)CN(C(=O)CNC(=O)OCc2ccccc2)C(c2ccccc2)c2cc(Cl)ccc21` (centres undefined), the melting point lay in the range of 158 to 160 °C.

Turning to `CCCc1nnc(/C=C/c2nc(-c3ccccc3)oc2COc2ccc(OCc3nc(-c4ccccc4)oc3C)cc2)o1`, the melting point is 119 to 120 °C.

`COc1ccc(C(=O)C=Cc2ccc(C(C)(C)C)cc2)cc1` returned a melting point of 114 to 116 °C.

Molecule `CCOC(=O)c1ccc(OCCCCCCc2cccc(O)c2O)cc1O` yielded a melting point of 63 to 68 °C.

The molecule `COc1ccc(Oc2ccc(C(=O)NC(C(=O)O)C(C)C)cc2)cc1` (centres undefined) gave a melting point of 156 °C.

For `CON(C)C(=O)NN(C(=O)Cl)c1cccc2c1OC(C)C2` (centres undefined), the melting point lay in the range of 91 to 93 °C.

Turning to `CC(C)[C@@H]1C[C@H](O)[C@H](CC2CCCCC2)NC1=O`, the melting point is 97 to 99 °C.

Molecule `Cc1cc([N+](=O)[O-])ccc1NC1CC1` yielded a melting point of 35 to 37 °C.

For the molecule `CC(C)(Cc1ccccc1)C(O)CCN1C(=O)NC(=O)C1CCCCCCC(=O)O` (centres undefined), the melting point amounted to 115 °C.

`O=C(O)Cc1oc2ccc(Cl)cc2c1-c1ccccc1` yielded a melting point of 194 to 195 °C.

Molecule `CCOCCOc1ccc(C(=O)CN(Cc2ccccc2)Cc2ccccc2)cc1C(=O)OC` yielded a melting point of 57 °C.

As to `CCCc1c(Cl)oc2ccc(I)cc2c1=O`, the melting point lay within 103 to 105 °C.

`CC(=Cc1ccc(C)cc1)COc1cc(C)c(NC=O)c(C)c1C` yielded a melting point of 167 to 169 °C.

For the molecule `COC(=O)CCC(CCCCNS(=O)(=O)c1ccc(Cl)cc1)CCCc1cccnc1` (centres undefined), the melting point lay in the range of 81 to 82 °C.

With `CNc1nc(CC(=O)Nc2cccc(C(F)(F)F)c2)cs1`, the melting point lay within 153 to 155 °C.

`OC(Cn1cncn1)(c1ccc(F)cc1F)C(F)(F)SC1CC1` (centres undefined): the melting point is 99 to 102 °C.

The molecule `CCOc1ccc([N+](=O)[O-])c(NN2CCOCC2)c1` came in with a melting point of 152 °C.

On to `COc1cccc(C2(CC(=O)O)CNC(=O)C2)c1` (centres undefined), for which the melting point is 144 to 146 °C.

Consider `Cc1c(C(=O)O)ccc(S(C)(=O)=O)c1-c1ccon1`, for which the melting point was 150 to 151 °C.

Consider `O=C(O)CCCC(=O)NCC1(S)CCCCC1`, for which the melting point is 73 to 74 °C.

Molecule `Cc1cc(Br)cc(C#N)c1` gave a melting point of 85 to 86 °C.

For the molecule `NC(=O)Cc1ccc([N+](=O)[O-])c(C(=O)c2ccc(Cl)cc2)c1`, the melting point was 212 °C.

`CCOC(=O)CN(CC(=O)OCC)[C@H]1CC[C@H](Nc2ncc3ncnc(Nc4ccc(F)c(Cl)c4)c3n2)CC1` yielded a melting point of 155 to 157 °C.

`COC(=O)CCn1c(=O)[nH][nH]c1=O` registered a melting point of 150 to 153 °C.

Consider `CCOC(=O)c1nc(-c2ccc(Cl)cc2Cl)n(-c2ccc(C(F)(F)F)cc2)c1C`, for which the melting point lay within 160 to 162 °C.

`Cc1ccc(S(=O)(=O)Nc2ccccc2C(=O)NCCc2ncc[nH]2)cc1` came in with a melting point of 173 to 181 °C.

`COC(=O)c1ccc(S(=O)(=O)C(Cn2ccnc2)c2ccccc2OC)cc1` (centres undefined) returned a melting point of 150 to 151 °C.

As for `N#CC1=CCCc2ccc(Br)cc21`, the melting point is 113 to 115 °C.

Regarding `O=S(=O)(c1ccccc1)c1c[nH]c2ccncc12`, the melting point lay within 261 to 263 °C.

`CC(=NNc1nnc(-n2c(=S)[nH]c3ccccc32)s1)c1ccccn1` registered a melting point above 280 °C.

`CC(C)c1cccc(-c2ccc(F)cc2)c1OCCO` showed a melting point of 77 to 78 °C.

For the molecule `Cc1cc(CNC(=O)CCl)c(O)c2c1CCC2=O`, the melting point was in the range of 166 to 168 °C.

`CCOC(=O)c1cc2c(C=O)cc3c4ccccc4ccc3c2s1` displayed a melting point of 196 to 197 °C.

Molecule `CCOc1nc(O)c(C#N)s1` had a melting point of 132 °C.

Consider `N#CC1CCN1C(c1ccccc1)c1ccccc1` (centres undefined), for which the melting point lay within 104 to 105 °C.

In turn, `Cc1ncc2cc(-c3c(C)cccc3Cl)c(N)nc2n1` yielded a melting point of 267 to 271 °C.

Consider `Cn1cc2c(CO)c(Br)ccc2n1`, for which the melting point lay in the range of 123 to 125 °C.

`Fc1cccc(C=Cc2nccc3ccccc23)c1` registered a melting point of 89 to 99 °C.

As for `Oc1ccc2oc(-c3ccc(O)c(Cl)c3)nc2c1`, the melting point fell in the range of 254 to 256 °C.

In the case of `CC(=O)c1cn(S(=O)(=O)c2ccccc2)c2nccc(Cl)c12`, the melting point was in the range of 160 to 162 °C.

In turn, `c1ccc2c(c1)CC(N1CCN(c3ccc4c(c3)OCCO4)CC1)C2` came in with a melting point of 183 to 185 °C.

Molecule `Cc1cccc(NC(=S)SCC(=O)C(C)(C)C)n1` yielded a melting point of 80 °C.

`CCCNC1=CC(=O)C(NCCC)=C2C1=Nc1ccccc1S2(=O)=O` had a melting point of 174 to 176 °C.

Molecule `COc1cc(C2C3=C(COC3=S)N(Cc3ccccc3)c3cc4c(cc32)OCO4)cc(OC)c1OC` (centres undefined) gave a melting point of 130 °C.

Molecule `C[C@@H](n1ncn(-c2ccc(-n3ccn(-c4ccc(OCC(F)(F)C(F)F)cc4)c3=O)cc2)c1=O)[C@](O)(Cn1cncn1)c1ccc(F)cc1F` gave a melting point of 181 to 183 °C.

As for `COc1cccc(N2CCN(C(=O)c3ccccc3C(c3ccc(O)cc3)c3ccc(O)cc3)CC2)c1`, the melting point fell in the range of 229 to 234 °C.

For the molecule `COc1cccc(C2(CCC(=O)O)NC(=O)NC2=O)c1` (centres undefined), the melting point amounted to 138 °C.

`CC(=O)NC[C@H]1CN(c2ccc(C3=CCN(C=O)CC3)cc2)C(=O)O1` displayed a melting point of 149 to 152 °C.

Take `CSC1=NS(=O)(=O)CCCS1`: the melting point worked out at 91 °C.

`O=C1OC(O)(Nc2ccccc2Br)C(c2ccccc2)C1c1ccccc1` (centres undefined) gave a melting point of 162 to 164 °C.

For `CC(C)(C)OC(=O)c1nc(-c2ccc(Cl)cc2Cl)n(-c2ccc(Cl)cc2)c1Br`, the melting point was in the range of 198 to 200 °C.

In the case of `COc1ccccc1C(O)c1cccc2c1ccn2C` (centres undefined), the melting point stood at 95 °C.

For `CCOc1ccc(S(C)(=O)=O)cc1C(=O)O`, the melting point lay in the range of 139 to 141 °C.

`NC(=O)c1sc2nc(N3CCC(NCC(O)c4ccc5ncccc5c4)CC3)cc(C(F)(F)F)c2c1N` (centres undefined) showed a melting point of 217 to 219 °C.

`O=C(N1CCC(c2ccncc2)CC1)N1CCN(S(=O)(=O)c2ccc(Cl)cc2)CC1` registered a melting point of 234 to 235 °C.

As for `CCCN(CCC)C(=O)Cc1ccc(O)c2[nH]ncc12`, the melting point fell in the range of 164 to 165 °C.

`Cc1ccc(S(=O)(=O)N2CC[C@@H](O)C2)cc1` came in with a melting point of 108 to 112 °C.

The molecule `O=C(CC1CCCCC1)Nc1c(Cl)ccc2nc(N3CCC(NS(=O)(=O)C(F)(F)F)CC3)ccc12` returned a melting point of 187 to 189 °C.

For `COc1cc(CN(C)c2ncc(C(=O)NO)cn2)cc(C(=O)Nc2ccc(Cl)c(-c3nc4cc(N(C)C)ccc4[nH]3)c2)c1`, the melting point is 207 to 208 °C.

In the case of `Cn1cncc1-c1cc(C=NN(CCC(C)(C)O)C(N)=S)nc(NC2CCN(S(C)(=O)=O)CC2)n1`, the melting point lay in the range of 204 to 206 °C.

As for `COc1cc(C=O)ccc1OCCN1c2ccccc2Sc2ccccc21`, the melting point was found to be 130 °C.

Consider `CCOC(=O)c1cc2c3n(ccc-2n1)CC(C=O)=N3`, for which the melting point lay in the range of 82 to 84 °C.

Consider `C#CCOc1cc(-n2nc(C)ccc2=O)c(F)cc1C#N`, for which the melting point is 180 °C.

With `CNC(=O)c1cccc(F)c1Nc1nc(Nc2ccc3c(c2)CCN(CCOC)CC3)ncc1Br`, the melting point fell in the range of 99 to 105 °C.

In turn, `CCn1cc(C(=O)O)c(=O)c2cc(F)c(OC3CCN(C)CC3)cc21` gave a melting point of 268 to 271 °C.

With `Fc1ccc(-c2nc(-c3ccc[nH]3)[nH]c2-c2ccc(F)cc2)cc1`, the melting point amounted to 276 °C.

Molecule `COc1ccc(-c2ccc(C(N)=O)cc2)cc1Br` displayed a melting point of 246 to 250 °C.

Take `COC(=O)c1ccccc1NCCCc1ccccc1`: the melting point fell in the range of 103 to 105 °C.

`CNS(=O)(=O)C(C)C(=O)C=C(C)N` (centres undefined) yielded a melting point of 140 to 143 °C.

In turn, `CCOC(=O)c1ccc(C2=CCCCC2)cc1` had a melting point of 66 °C.

`CCNC(=O)CCCNC(=O)CCCNC(=O)CCCNC(=O)OC(C)(C)C` gave a melting point of 170 to 171 °C.

For the molecule `O=[PH](O)Cc1cccc(P(c2ccccc2)c2ccccc2)c1`, the melting point was determined as 173 °C.

Molecule `N#Cc1ccc2c(c1)C(c1ncnc3nn(C4CCCCC4)cc13)C(=O)N2` (centres undefined) came in with a melting point above 325 °C.

`COC(=O)CNC(=O)C(C)NC(=O)CNC(=O)OC(C)(C)C` (stereo not drawn) (Boc-Gly-[ξA]-Gly-OMe) registered a melting point of 98 to 100 °C.

`O=C(O)C1=Cc2cc(C(F)F)ccc2OC1C(F)(F)F` (centres undefined) displayed a melting point of 135 to 136 °C.

With `CCCCc1cn(CCc2cccs2)c(=O)n1Cc1ccc(-c2ccccc2-c2nnn[nH]2)nc1`, the melting point lay within 137 to 138 °C.

The record behind these values is a melting point compilation (Tetko et al.; mined from patent text by program, amines drawn as free bases though some values may be those of a salt).
